Test results as given in the NIST ThermoML archive (doi:10.1016/j.jct.2005.03.019).
Numbers after ± are expanded uncertainties.

Assay: xn = mol fraction of the nth substance listed
Conditions: 101 kPa, Liquid, Vibrating tube method

C=Cc1ccccc1 [styrene] + CC1COC(=O)O1
Conditions | mass density [kg/m3]
293.15 K, x1 = 0.0537 | 1180.1 ± 0.2
293.15 K, x1 = 0.1389 | 1149.3 ± 0.3
293.15 K, x1 = 0.1832 | 1134 ± 0.4
293.15 K, x1 = 0.2341 | 1116.8 ± 0.5
293.15 K, x1 = 0.294 | 1097.3 ± 0.7
293.15 K, x1 = 0.3867 | 1068.4 ± 1
293.15 K, x1 = 0.4379 | 1053.1 ± 1.3
293.15 K, x1 = 0.5089 | 1032.5 ± 1.6
293.15 K, x1 = 0.5799 | 1012.6 ± 1.9
293.15 K, x1 = 0.6328 | 998.3 ± 2.2
293.15 K, x1 = 0.6978 | 981.1 ± 2.6
293.15 K, x1 = 0.7534 | 966.7 ± 2.9
293.15 K, x1 = 0.8136 | 951.5 ± 3.3
293.15 K, x1 = 0.8738 | 936.6 ± 3.6
293.15 K, x1 = 0.9348 | 921.7 ± 4
293.15 K, x1 = 1 | 906 ± 4.5
303.15 K, x1 = 0.0613 | 1158.4 ± 0.2
303.15 K, x1 = 0.1289 | 1134.8 ± 0.3
303.15 K, x1 = 0.1743 | 1119.6 ± 0.4
303.15 K, x1 = 0.2389 | 1098.5 ± 0.5
303.15 K, x1 = 0.2976 | 1080.1 ± 0.7
303.15 K, x1 = 0.3681 | 1058.8 ± 0.9
303.15 K, x1 = 0.4178 | 1044.3 ± 1.1
303.15 K, x1 = 0.4622 | 1031.7 ± 1.3
303.15 K, x1 = 0.5239 | 1014.6 ± 1.6
303.15 K, x1 = 0.5919 | 996.3 ± 1.9
303.15 K, x1 = 0.6521 | 980.7 ± 2.3
303.15 K, x1 = 0.7244 | 962.4 ± 2.7
303.15 K, x1 = 0.7932 | 945.4 ± 3.1
303.15 K, x1 = 0.8472 | 932.4 ± 3.4
303.15 K, x1 = 0.9247 | 914 ± 3.9
303.15 K, x1 = 1 | 896.4 ± 4.4
313.15 K, x1 = 0.0473 | 1144.7 ± 0.2
313.15 K, x1 = 0.1255 | 1118.3 ± 0.2
313.15 K, x1 = 0.1922 | 1096.7 ± 0.4
313.15 K, x1 = 0.2467 | 1079.7 ± 0.5
313.15 K, x1 = 0.2844 | 1068.3 ± 0.6
313.15 K, x1 = 0.3388 | 1052.2 ± 0.8
313.15 K, x1 = 0.4032 | 1033.8 ± 1
313.15 K, x1 = 0.4789 | 1013 ± 1.3
313.15 K, x1 = 0.5376 | 997.4 ± 1.6
313.15 K, x1 = 0.6198 | 976.4 ± 2
313.15 K, x1 = 0.6638 | 965.4 ± 2.3
313.15 K, x1 = 0.7398 | 946.9 ± 2.7
313.15 K, x1 = 0.8133 | 929.5 ± 3.1
313.15 K, x1 = 0.8756 | 915.1 ± 3.5
313.15 K, x1 = 0.9456 | 899.1 ± 3.9
313.15 K, x1 = 1 | 886.9 ± 4.3
323.15 K, x1 = 0.0598 | 1122.3 ± 0.2
323.15 K, x1 = 0.1431 | 1095.3 ± 0.3
323.15 K, x1 = 0.1846 | 1082.4 ± 0.3
323.15 K, x1 = 0.2572 | 1060.6 ± 0.5
323.15 K, x1 = 0.3312 | 1039.2 ± 0.7
323.15 K, x1 = 0.3841 | 1024.5 ± 0.9
323.15 K, x1 = 0.4423 | 1008.8 ± 1.2
323.15 K, x1 = 0.4928 | 995.6 ± 1.4
323.15 K, x1 = 0.5634 | 977.7 ± 1.7
323.15 K, x1 = 0.6143 | 965.1 ± 2
323.15 K, x1 = 0.6635 | 953.3 ± 2.2
323.15 K, x1 = 0.7187 | 940.3 ± 2.5
323.15 K, x1 = 0.7749 | 927.3 ± 2.8
323.15 K, x1 = 0.8353 | 913.6 ± 3.2
323.15 K, x1 = 0.9244 | 893.8 ± 3.7
323.15 K, x1 = 1 | 877.3 ± 4.2
333.15 K, x1 = 0.0534 | 1106.6 ± 0.1
333.15 K, x1 = 0.113 | 1087.7 ± 0.2
333.15 K, x1 = 0.1682 | 1070.9 ± 0.3
333.15 K, x1 = 0.2134 | 1057.5 ± 0.4
333.15 K, x1 = 0.2843 | 1037.2 ± 0.6
333.15 K, x1 = 0.3587 | 1016.8 ± 0.8
333.15 K, x1 = 0.4238 | 999.7 ± 1
333.15 K, x1 = 0.479 | 985.6 ± 1.3
333.15 K, x1 = 0.5359 | 971.5 ± 1.5
333.15 K, x1 = 0.5831 | 960.1 ± 1.8
333.15 K, x1 = 0.6811 | 937.2 ± 2.3
333.15 K, x1 = 0.7529 | 920.9 ± 2.6
333.15 K, x1 = 0.8243 | 905.2 ± 3.1
333.15 K, x1 = 0.8871 | 891.7 ± 3.4
333.15 K, x1 = 0.9424 | 879.9 ± 3.8
333.15 K, x1 = 1 | 867.8 ± 4.1
343.15 K, x1 = 0.0648 | 1085.6 ± 0.1
343.15 K, x1 = 0.1198 | 1068.9 ± 0.2
343.15 K, x1 = 0.1823 | 1050.6 ± 0.3
343.15 K, x1 = 0.2398 | 1034.3 ± 0.4
343.15 K, x1 = 0.318 | 1013 ± 0.7
343.15 K, x1 = 0.3832 | 996 ± 0.9
343.15 K, x1 = 0.4429 | 981 ± 1.1
343.15 K, x1 = 0.5138 | 963.8 ± 1.4
343.15 K, x1 = 0.5824 | 947.6 ± 1.7
343.15 K, x1 = 0.6529 | 931.6 ± 2.1
343.15 K, x1 = 0.7039 | 920.3 ± 2.3
343.15 K, x1 = 0.7735 | 905.2 ± 2.7
343.15 K, x1 = 0.8423 | 890.7 ± 3.1
343.15 K, x1 = 0.8814 | 882.5 ± 3.3
343.15 K, x1 = 0.9476 | 868.9 ± 3.7
343.15 K, x1 = 1 | 858.2 ± 4
353.15 K, x1 = 0.0621 | 1069.6 ± 0.1
353.15 K, x1 = 0.1257 | 1051 ± 0.2
353.15 K, x1 = 0.1644 | 1040 ± 0.3
353.15 K, x1 = 0.2312 | 1021.6 ± 0.4
353.15 K, x1 = 0.3042 | 1002.2 ± 0.6
353.15 K, x1 = 0.3718 | 985 ± 0.8
353.15 K, x1 = 0.4423 | 967.7 ± 1.1
353.15 K, x1 = 0.5021 | 953.5 ± 1.3
353.15 K, x1 = 0.5539 | 941.6 ± 1.5
353.15 K, x1 = 0.6243 | 925.9 ± 1.9
353.15 K, x1 = 0.6912 | 911.4 ± 2.2
353.15 K, x1 = 0.752 | 898.5 ± 2.5
353.15 K, x1 = 0.8132 | 885.9 ± 2.9
353.15 K, x1 = 0.8642 | 875.5 ± 3.1
353.15 K, x1 = 0.9248 | 863.4 ± 3.5
353.15 K, x1 = 1 | 848.6 ± 4
